The values that follow are results of earlier work, collected in patent US7655259B2, “Delayed release carnitine” (SIGMA-TAU Industrie Farmaceutiche Riunite S.p.A, priority 1993, dated 2010).

The conditions of data set [1]: given orally, carnitine deficient patients.
The conditions of data set [2]: in the human.

For `C[N+](C)(C)CCCC(=O)[O-]` [GBB, Gamma-butyrobetaine], in data set [1], the “conversion to L-carnitine” value is “readily converted to L-carnitine”.

Regarding `C[N+](C)(C)CC(O)CC(=O)[O-]` [L-carnitine, 3-hydroxy-4-(trimethylamino-)butyrate], the half-life result in data set [2] is “approximately 30 minutes”.
